Measurements from patent US20240132484A1, “BROAD SPECTRUM ANTIVIRAL COMPOUNDS TARGETING THE SKI COMPLEX” (priority 2020, published 2024).
Where “and” joins values, the source holds several entries; their conditions need not be identical. Identical values can stand only once. Like-named read-outs stand apart in the source and are kept apart here.

How the values were obtained:
[1] = tested on: cells (nuclei count); conditions: for Relative cell count to DMSO controls, Average 1 μM / Relative cell count to DMSO controls, Average 5 μM / Relative cell count to DMSO controls, Average 10 μM / Relative cell count to DMSO controls, Average 25 μM / Relative cell count to DMSO controls, Average 50 μM: toxicity data, 100=DMSO control; for Toxicity Data, Average, Mean: average of Exp 1-3 (SMW475, SMW477, SMW478); for Relative cell count to DMSO controls, Average (for correlation analysis): average value over the 5 tested concentrations (1 to 50 uM)
[2] = tested on: SARS2; format: cell-based, SARS-CoV-2; conditions: for Percentage Infection Relative to Appropriate DMSO Control with Avg Background Subtraction: Greiner Celigo plates; for Percentage Inhibition Average 1 μM / Screening data (Relative infection to DMSO controls) Average 1 μM: SARS2, 1 μM; for Screening data (Relative infection to DMSO controls) Average 1 μM / Screening data (Relative infection to DMSO controls) Average 5 μM / Screening data (Relative infection to DMSO controls) Average 10 μM / Screening data (Relative infection to DMSO controls) Average 25 μM / Screening data (Relative infection to DMSO controls) Average 50 μM / Average (relative infection to DMSO over the 5 tested concentrations): 100=DMSO control; for Percentage Inhibition Average 5 μM / Screening data (Relative infection to DMSO controls) Average 5 μM: SARS2, 5 μM; for Percentage Inhibition Average 10 μM / Screening data (Relative infection to DMSO controls) Average 10 μM: SARS2, 10 μM; for Percentage Inhibition Average 25 μM / Screening data (Relative infection to DMSO controls) Average 25 μM: SARS2, 25 μM; for Percentage Inhibition Average 50 μM / Screening data (Relative infection to DMSO controls) Average 50 μM: SARS2, 50 μM; for Average (relative infection to DMSO over the 5 tested concentrations): SARS2, average over 1 to 50 uM; for Infection Data, Average, Mean: average of Exp 1-3 (SMW475, SMW477, SMW478)

SMILES: CCN(CC)CCN(Cc1ccccn1)Cc1ccc(C)o1 [SILCS36]
- Relative cell count to DMSO controls, Average 1 μM [1]: 87.6
- Relative cell count to DMSO controls, Average 5 μM [1]: 84.91
- Relative cell count to DMSO controls, Average 10 μM [1]: 88.15
- Relative cell count to DMSO controls, Average 25 μM [1]: 91.83
- Relative cell count to DMSO controls, Average 50 μM [1]: 63.21
- Toxicity Data, Average, Mean ([1]; n 9, 1 uM): 87.60%
- Toxicity Data, Average, Mean ([1]; n 9, 5 uM): 84.91%
- Toxicity Data, Average, Mean ([1]; n 9, 10 uM): 88.15%
- Toxicity Data, Average, Mean ([1]; n 9, 25 uM): 91.83%
- Toxicity Data, Average, Mean ([1]; n 9, 50 uM): 63.21%
- Relative cell count to DMSO controls, Average (for correlation analysis) [1]: 83.14
- Percentage Infection Relative to Appropriate DMSO Control with Avg Background Subtraction ([2]; Exp 1 (SMW475), 1 uM): 112.32% and 102.95% and 77.60%
- Percentage Infection Relative to Appropriate DMSO Control with Avg Background Subtraction ([2]; Exp 1 (SMW475), 5 uM): 103.78% and 96.97% and 70.88%
- Percentage Infection Relative to Appropriate DMSO Control with Avg Background Subtraction ([2]; Exp 1 (SMW475), 10 uM): 100.05% and 88.33% and 67.06%
- Percentage Infection Relative to Appropriate DMSO Control with Avg Background Subtraction ([2]; Exp 1 (SMW475), 25 uM): 42.48% and 40.16% and 33.52%
- Percentage Infection Relative to Appropriate DMSO Control with Avg Background Subtraction ([2]; Exp 2 (SMW477), 1 uM): 136.49% and 133.25% and 131.77%
- Percentage Infection Relative to Appropriate DMSO Control with Avg Background Subtraction ([2]; Exp 2 (SMW477), 5 uM): 140.43% and 143.68% and 122.53%
- Percentage Infection Relative to Appropriate DMSO Control with Avg Background Subtraction ([2]; Exp 2 (SMW477), 10 uM): 111.26% and 112.57% and 100.88%
- Percentage Infection Relative to Appropriate DMSO Control with Avg Background Subtraction ([2]; Exp 2 (SMW477), 25 uM): 70.58% and 67.21% and 40.18%
- Percentage Infection Relative to Appropriate DMSO Control with Avg Background Subtraction ([2]; Exp 3 (SMW478), 1 uM): 116.69% and 121.41% and 101.10%
- Percentage Infection Relative to Appropriate DMSO Control with Avg Background Subtraction ([2]; Exp 3 (SMW478), 5 uM): 103.27% and 118.27% and 106.75%
- Percentage Infection Relative to Appropriate DMSO Control with Avg Background Subtraction ([2]; Exp 3 (SMW478), 10 uM): 99.80% and 128.16% and 117.51%
- Percentage Inhibition Average 1 μM [2]: −14.84%
- Screening data (Relative infection to DMSO controls) Average 1 μM [2]: 114.84
- Percentage Inhibition Average 5 μM [2]: −11.84%
- Screening data (Relative infection to DMSO controls) Average 5 μM [2]: 111.84
- Percentage Inhibition Average 10 μM [2]: −2.85%
- Screening data (Relative infection to DMSO controls) Average 10 μM [2]: 102.85
- Percentage Inhibition Average 25 μM [2]: 42.56%
- Screening data (Relative infection to DMSO controls) Average 25 μM [2]: 57.44
- Percentage Inhibition Average 50 μM [2]: 72.63%
- Screening data (Relative infection to DMSO controls) Average 50 μM [2]: 27.37
- Average (relative infection to DMSO over the 5 tested concentrations) [2]: 82.87
- Infection Data, Average, Mean ([2]; n 9, 1 uM): 114.84%
- Infection Data, Average, Mean ([2]; n 9, 5 uM): 111.84%
- Infection Data, Average, Mean ([2]; n 9, 10 uM): 102.85%
- Infection Data, Average, Mean ([2]; n 9, 25 uM): 57.44%
- Infection Data, Average, Mean ([2]; n 9, 50 uM): 27.37%

SMILES: Cc1ccc(CN(CCN(C)C)Cc2ccc(C)s2)o1 [SILCS7]
- Relative cell count to DMSO controls, Average 1 μM [1]: 110.82
- Relative cell count to DMSO controls, Average 5 μM [1]: 103.66
- Relative cell count to DMSO controls, Average 10 μM [1]: 106.58
- Relative cell count to DMSO controls, Average 25 μM [1]: 103.49
- Relative cell count to DMSO controls, Average 50 μM [1]: 73.73
- Toxicity Data, Average, Mean (relative to DMSO control) ([1]; Average of Exp 1-3, 1 uM): 110.82%
- Toxicity Data, Average, Mean (relative to DMSO control) ([1]; Average of Exp 1-3, 5 uM): 103.66%
- Toxicity Data, Average, Mean (relative to DMSO control) ([1]; Average of Exp 1-3, 10 uM): 106.58%
- Toxicity Data, Average, Mean (relative to DMSO control) ([1]; Average of Exp 1-3, 25 uM): 103.49%
- Toxicity Data, Average, Mean (relative to DMSO control) ([1]; Average of Exp 1-3, 50 uM): 73.73%
- Relative cell count to DMSO controls, Average (for correlation analysis) [1]: 99.66
- Percentage Inhibition Average 1 μM [2]: 6.07%
- Screening data (Relative infection to DMSO controls) Average 1 μM [2]: 93.93
- Percentage Inhibition Average 5 μM [2]: 7.19%
- Screening data (Relative infection to DMSO controls) Average 5 μM [2]: 92.81
- Percentage Inhibition Average 10 μM [2]: 42.29%
- Screening data (Relative infection to DMSO controls) Average 10 μM [2]: 57.71
- Percentage Inhibition Average 25 μM [2]: 58.04%
- Screening data (Relative infection to DMSO controls) Average 25 μM [2]: 41.96
- Percentage Inhibition Average 50 μM [2]: 68.91%
- Screening data (Relative infection to DMSO controls) Average 50 μM [2]: 31.09
- Average (relative infection to DMSO over the 5 tested concentrations) [2]: 63.50
